{"source": "patent US7767240B2", "about": "“Microbiological control in poultry processing” (priority 2001, dated 2010)", "key": {"[1]": {"tested_on": "Escherichia coli field strain", "assay": "Whole bird bacteria reduction, chill tank (Example 2)", "type": "cell-based", "details": "1.5 h chill tank", "description": "The trial events and experimental design used were as follows: • a) For all treatments a total of 190 birds were processed in a normal fashion. Each treatment involved use of 10 birds. • b) A warm (100° F.) bath was prepared containing 5×10^4 DelMarVa (Delaware-Maryland farm area) field Escherichia coli stain bacteria per mL. At least 200 mL of total bath fluid was provided for each bird. • c) All birds (both controls and treated) were randomly immersed into the warm bath. Both the inside and outside carcass areas were immersed to assure complete coverage. • d) Each separate chill tank water solution (normal tap water adjusted pH to 8.5, ice added to produce temperatures of <45° F.) contained 2×10^3 per mL bacteria. • e) The chill tank water solutions (at least 750 mL each) were be prepared for each disinfecting treatment, and birds were immersed for a period of 1.5 hours. • f) Each 10 minutes during the 1.5 hour chilling period, the birds were completely lifted out of solution and then reimersed in the solution. After the 1.5 hour chilling period, the birds were taken from the chill water and drained for 30 seconds, then promptly (within 5 minutes) placed into a sterile whole bird stomacher bag containing 400 mL diluent (Butterfield's Phosphate Diluent) bacteria collection. • g) Diluent (400 mL) was added to each carcass contained in a sterile stomacher bag while making sure to pour the diluent into the inside of the abdominal cavity. The carcass was rinsed inside and out with a rocking motion for one minute (ca. 35 RPM). […] After the fluids had been diluted, 0.1 mL of fluid was be placed on a MacConkey agar plate and bacteria counts determined. In cases where the goal of a 25-250 count on the plate was not achieved, another dilution and replating were conducted. • j) After all carcasses for each treatment had been dipped, water sample bacteria were determined. • k) Total bacteria per bird were calculated. […]"}, "[2]": {"tested_on": "biofilm-associated HPC (heterotrophic plate count) bacteria", "assay": "HPC bacteria eradication in biofilm, PVC sampling pipes", "type": "cell-based", "excerpt": "In another group of tests, the results of which are depicted in FIGS. 5 through 10, several bromine-based microbiocides of this invention were utilized in tests illustrating their effectiveness in eradicating or controlling Heterotrophic Plate Count bacteria i.e., a mixture of naturally-occurring pathogenic bacteria of various unidentified species. These bacteria were challenged both in the form of biofilms and in planktonic form.\nThe experimental conditions utilized in these tests involved use of an apparatus consisting of three parallel transparent PVC sampling pipes. These pipes were used for collection of biofilm (i.e., sessile or surface attached) bacteria samples; one as control pipe, one for a relatively low biocide concentration and the third for a higher biocide concentration. The biocide challenge in each case was divided into three phases. First was a 14-day inoculation. Next was a 48-hour disinfection period. Finally a 2-week recovery period was provided. The biocide under test was slug-dosed and during the first hour of exposure, the concentration was adjusted to achieve the desired concentration level.\nThe source of the naturally-grown heterotrophic plate count (HPC) bacteria was sediment and associated water collected from the recirculating hot water system of a hospital. […]"}}, "data": [{"smiles": "CC1(C)C(=O)N(Br)C(=O)N1Br", "note": "[DBDMH, 1,3-dibromo-5,5-dimethylhydantoin]", "values": [{"measurement": "Whole Bird Bacteria Reduction (%)", "setting": "[1]; 50 ppm Cl2 (equivalent)", "result": 99.9999, "unit": "%"}, {"measurement": "Whole Bird Bacteria Reduction (%)", "setting": "[1]; 100 ppm Cl2 (equivalent)", "result": 99.9999, "unit": "%"}, {"measurement": "Whole Bird Bacteria Reduction (%)", "setting": "[1]; 150 ppm Cl2 (equivalent)", "result": 99.9999, "unit": "%"}, {"measurement": "biofilm-associated HPC bacteria eradicated", "setting": "[2]; 0.5 ppm as bromine, within three hours", "result": "over 99%"}, {"measurement": "biofilm-associated HPC bacteria eradicated", "setting": "[2]; 5 ppm as bromine, within twelve hours", "result": "~99.9", "unit": "%"}]}]}
